Measurements reported in ChEMBL document CHEMBL3046257, “Response of sweet maize (Zea mays L.) hybrids to halosulfuron” (Crop Prot, 2008).

Assays:
Format in all cases: organism-based
[1] = system: Zea mays; test: Toxicity in Zea mays Empire (maize) assessed as cob size at 50 g ai/ha applied shortly post-emergence at three to five-leaf stage using backpack sprayer (reference value: 304 g); settings: in vivo, other
[2] = system: Zea mays; test: Toxicity in Zea mays GH2547 (maize) assessed as visible injury at 25 g ai/ha applied shortly post-emergence at three to five-leaf stage using backpack sprayer measured after 7 days; settings: in vivo, other, 168 h
[3] = system: Zea mays; test: Toxicity in Zea mays GH2547 (maize) assessed as visible injury at 50 g ai/ha applied shortly post-emergence at three to five-leaf stage using backpack sprayer measured after 14 days; settings: in vivo, other, 336 h
[4] = system: Zea mays; test: Toxicity in Zea mays Empire (maize) assessed as visible injury at 50 g ai/ha applied shortly post-emergence at three to five-leaf stage using backpack sprayer measured after 7 days; settings: in vivo, other, 168 h
[5] = system: Zea mays; test: Toxicity in Zea mays GG446 (maize) assessed as visible injury at 50 g ai/ha applied shortly post-emergence at three to five-leaf stage using backpack sprayer measured after 28 days; settings: in vivo, other, 672 h
[6] = system: Zea mays; test: Toxicity in Zea mays GH2547 (maize) assessed as visible injury at 25 g ai/ha applied shortly post-emergence at three to five-leaf stage using backpack sprayer measured after 14 days; settings: in vivo, other, 336 h
[7] = system: Zea mays; test: Toxicity in Zea mays GH2041 (maize) assessed as visible injury at 25 g ai/ha applied shortly post-emergence at three to five-leaf stage using backpack sprayer measured after 7 days; settings: in vivo, other, 168 h
[8] = system: Zea mays; test: Toxicity in Zea mays GG214 (maize) assessed as marketable yield at 25 g ai/ha applied shortly post-emergence at three to five-leaf stage using backpack sprayer (reference value: 14.2 T/ha ); settings: in vivo, other
[9] = system: Zea mays; test: Toxicity in Zea mays GH2041 (maize) assessed as plant height at 25 g ai/ha applied shortly post-emergence at three to five-leaf stage using backpack sprayer measured after 21 days (Rvb =80 cm); settings: in vivo, other, 504 h
[10] = system: Zea mays; test: Toxicity in Zea mays GH2041 (maize) assessed as visible injury at 50 g ai/ha applied shortly post-emergence at three to five-leaf stage using backpack sprayer measured after 7 days; settings: in vivo, other, 168 h
[11] = system: Zea mays; test: Toxicity in Zea mays GH2298 (maize) assessed as marketable yield at 50 g ai/ha applied shortly post-emergence at three to five-leaf stage using backpack sprayer (reference value: 16.9 T/ha ); settings: in vivo, other
[12] = system: Zea mays; test: Toxicity in Zea mays GG446 (maize) assessed as marketable yield at 25 g ai/ha applied shortly post-emergence at three to five-leaf stage using backpack sprayer (reference value: 20.0 T/ha ); settings: in vivo, other
[13] = system: Zea mays; test: Toxicity in Zea mays GH2684 (maize) assessed as visible injury at 50 g ai/ha applied shortly post-emergence at three to five-leaf stage using backpack sprayer measured after 28 days; settings: in vivo, other, 672 h
[14] = system: Zea mays; test: Toxicity in Zea mays GG214 (maize) assessed as marketable yield at 50 g ai/ha applied shortly post-emergence at three to five-leaf stage using backpack sprayer (reference value: 14.2 T/ha ); settings: in vivo, other
[15] = system: Zea mays; test: Toxicity in Zea mays GSS9299 (maize) assessed as visible injury at 25 g ai/ha applied shortly post-emergence at three to five-leaf stage using backpack sprayer measured after 7 days; settings: in vivo, other, 168 h
[16] = system: Zea mays; test: Toxicity in Zea mays GH2298 (maize) assessed as visible injury at 50 g ai/ha applied shortly post-emergence at three to five-leaf stage using backpack sprayer measured after 7 days; settings: in vivo, other, 168 h
[17] = system: Zea mays; test: Toxicity in Zea mays GH2298 (maize) assessed as plant height at 50 g ai/ha applied shortly post-emergence at three to five-leaf stage using backpack sprayer measured after 21 days (Rvb =80 cm); settings: in vivo, other, 504 h
[18] = system: Zea mays; test: Toxicity in Zea mays Empire (maize) assessed as visible injury at 25 g ai/ha applied shortly post-emergence at three to five-leaf stage using backpack sprayer measured after 14 days; settings: in vivo, other, 336 h
[19] = system: Zea mays; test: Toxicity in Zea mays GSS9299 (maize) assessed as visible injury at 25 g ai/ha applied shortly post-emergence at three to five-leaf stage using backpack sprayer measured after 14 days; settings: in vivo, other, 336 h
[20] = system: Zea mays; test: Toxicity in Zea mays GH2684 (maize) assessed as visible injury at 50 g ai/ha applied shortly post-emergence at three to five-leaf stage using backpack sprayer measured after 7 days; settings: in vivo, other, 168 h
[21] = system: Zea mays; test: Toxicity in Zea mays GSS9299 (maize) assessed as plant height at 50 g ai/ha applied shortly post-emergence at three to five-leaf stage using backpack sprayer measured after 21 days (Rvb =69 cm); settings: in vivo, other, 504 h
[22] = system: Zea mays; test: Toxicity in Zea mays GG214 (maize) assessed as cob size at 50 g ai/ha applied shortly post-emergence at three to five-leaf stage using backpack sprayer (reference value: 292 g); settings: in vivo, other
[23] = system: Zea mays; test: Toxicity in Zea mays GH2547 (maize) assessed as marketable yield at 25 g ai/ha applied shortly post-emergence at three to five-leaf stage using backpack sprayer (reference value: 16.7 T/ha ); settings: in vivo, other
[24] = system: Zea mays; test: Toxicity in Zea mays GH2298 (maize) assessed as visible injury at 50 g ai/ha applied shortly post-emergence at three to five-leaf stage using backpack sprayer measured after 28 days; settings: in vivo, other, 672 h
[25] = system: Zea mays; test: Toxicity in Zea mays GH2684 (maize) assessed as cob size at 50 g ai/ha applied shortly post-emergence at three to five-leaf stage using backpack sprayer (reference value: 340 g); settings: in vivo, other
[26] = system: Zea mays; test: Toxicity in Zea mays GG446 (maize) assessed as visible injury at 25 g ai/ha applied shortly post-emergence at three to five-leaf stage using backpack sprayer measured after 28 days; settings: in vivo, other, 672 h
[27] = system: Zea mays; test: Toxicity in Zea mays GH2684 (maize) assessed as marketable yield at 50 g ai/ha applied shortly post-emergence at three to five-leaf stage using backpack sprayer (reference value: 15.5 T/ha ); settings: in vivo, other
[28] = system: Zea mays; test: Toxicity in Zea mays Empire (maize) assessed as cob size at 25 g ai/ha applied shortly post-emergence at three to five-leaf stage using backpack sprayer (reference value: 304 g); settings: in vivo, other
[29] = system: Zea mays; test: Toxicity in Zea mays GG446 (maize) assessed as visible injury at 25 g ai/ha applied shortly post-emergence at three to five-leaf stage using backpack sprayer measured after 14 days; settings: in vivo, other, 336 h
[30] = system: Zea mays; test: Toxicity in Zea mays GSS9299 (maize) assessed as marketable yield at 25 g ai/ha applied shortly post-emergence at three to five-leaf stage using backpack sprayer (reference value: 13.2 T/ha ); settings: in vivo, other
[31] = system: Zea mays; test: Toxicity in Zea mays GG214 (maize) assessed as visible injury at 50 g ai/ha applied shortly post-emergence at three to five-leaf stage using backpack sprayer measured after 28 days; settings: in vivo, other, 672 h
[32] = system: Zea mays; test: Toxicity in Zea mays GH2041 (maize) assessed as visible injury at 25 g ai/ha applied shortly post-emergence at three to five-leaf stage using backpack sprayer measured after 28 days; settings: in vivo, other, 672 h
[33] = system: Zea mays; test: Toxicity in Zea mays GH2684 (maize) assessed as marketable yield at 25 g ai/ha applied shortly post-emergence at three to five-leaf stage using backpack sprayer (reference value: 15.5 T/ha ); settings: in vivo, other

## COc1cc(OC)nc(NC(=O)NS(=O)(=O)c2c(C(=O)O)c(Cl)nn2C)n1 [HALOSULFURON]
[1]
  Activity: 289 g
[2]
  Activity: 1%
[3]
  Activity: 0%
[4]
  Activity: 8%
[5]
  Activity: 0%
[6]
  Activity: 0%
[7]
  Activity: 1%
[8]
  Crop_yield: 13.4 tons/ha
[9]
  Activity: 76 cm
[10]
  Activity: 2%
[11]
  Crop_yield: 15.7 tons/ha
[12]
  Crop_yield: 19.3 tons/ha
[13]
  Activity: 1%
[14]
  Crop_yield: 13.3 tons/ha
[15]
  Activity: 1%
[16]
  Activity: 6%
[17]
  Activity: 76 cm
[18]
  Activity: 3%
[19]
  Activity: 2%
[20]
  Activity: 7%
[21]
  Activity: 68 cm
[22]
  Activity: 287 g
[23]
  Crop_yield: 16.2 tons/ha
[24]
  Activity: 1%
[25]
  Activity: 321 g
[26]
  Activity: 0%
[27]
  Crop_yield: 15.2 tons/ha
[28]
  Activity: 299 g
[29]
  Activity: 0%
[30]
  Crop_yield: 12.3 tons/ha
[31]
  Activity: 1%
[32]
  Activity: 0%
[33]
  Crop_yield: 15.5 tons/ha
